Measured values reported in patent US20230147257A1 (DONG-A ST CO., LTD., priority 2020, published 2023).
Read-outs that look alike come from different tables or passages of the source.

What was measured:
Type in all cases: cell-based
[1] = target: T1, AhR (Homo sapiens, UniProt P35869); experiment: In vitro assay 4: endogenous AhR activity assay (CYP1A1 and CYP1B1 mRNA, qRT-PCR, HepG2 cells); conditions: TCDD 10 nM with compound 123 nM, 4 hours, mRNA relative to β-actin
T1 construct: host or cells: HepG2
T1 sequence (P35869 11-848): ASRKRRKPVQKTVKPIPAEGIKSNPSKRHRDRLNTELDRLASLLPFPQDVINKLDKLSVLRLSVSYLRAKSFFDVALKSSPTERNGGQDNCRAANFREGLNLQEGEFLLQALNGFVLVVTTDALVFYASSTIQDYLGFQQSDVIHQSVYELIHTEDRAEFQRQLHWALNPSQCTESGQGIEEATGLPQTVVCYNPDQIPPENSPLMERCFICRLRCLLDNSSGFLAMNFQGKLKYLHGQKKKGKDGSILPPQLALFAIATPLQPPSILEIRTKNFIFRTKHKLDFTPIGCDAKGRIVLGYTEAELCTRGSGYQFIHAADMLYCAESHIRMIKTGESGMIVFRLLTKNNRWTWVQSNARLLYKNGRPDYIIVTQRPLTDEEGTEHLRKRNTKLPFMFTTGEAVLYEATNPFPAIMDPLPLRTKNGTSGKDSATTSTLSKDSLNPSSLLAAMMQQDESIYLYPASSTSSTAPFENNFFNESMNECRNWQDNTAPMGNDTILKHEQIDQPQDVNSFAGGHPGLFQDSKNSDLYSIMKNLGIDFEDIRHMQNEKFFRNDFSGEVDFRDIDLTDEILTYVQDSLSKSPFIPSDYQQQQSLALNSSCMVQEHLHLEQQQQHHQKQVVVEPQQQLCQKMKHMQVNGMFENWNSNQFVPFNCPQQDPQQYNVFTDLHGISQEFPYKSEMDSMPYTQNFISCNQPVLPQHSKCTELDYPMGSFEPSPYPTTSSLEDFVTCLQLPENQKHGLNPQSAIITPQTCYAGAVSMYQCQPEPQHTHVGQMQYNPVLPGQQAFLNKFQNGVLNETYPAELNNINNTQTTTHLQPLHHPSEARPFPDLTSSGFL
Procedure: In Vitro Assay 4: Endogenous AhR Activity Assay
HepG2 cells were seeded in 12-well plate (3×10^5 cells/well). A day after seeding, the cells were treated with TCDD (10 nM) alone or with compounds (123 nM) for 4 hours. Total RNA was extracted using Trizol (Thermo Fisher Scientific). cDNA synthesis and quantitative RT-PCR (qRT-PCR) assays were performed using PrimeScript™ RT Master Mix (TAKARA) and TB Green™ Premix Ex Taq™ II (TAKARA) in accordance with manufacturer's instruction. For the measurement of endogenous AhR activity, relative mRNA levels of CYP1A1 and CYP1B1 were quantitated relative to β(beta)-actin mRNA by the comparative Ct (ΔΔCt) method. The percent inhibitions were calculated according to: […]

[2] = target: T1, AhR; experiment: In vitro assay 1: XRE-luciferase reporter assay, antagonism in human cell line (HepG2); conditions: HepG2 XRE-luciferase, 6 hours, read-out: Assay 1: AhR-Luc Human Antagonism (IC50)
Summary of the method: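 HepG2 cells carrying XRE-firefly luciferase (transient or stable) plus constitutive Nano-Luc control, stimulated 6 h with kynurenine (50 or 200 μM) with or without compound. Firefly/Nano-Luc ratio normalized to kynurenine-alone (maximum) and vehicle (minimum); IC50 by four-parameter nonlinear regression.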

[3] = target: T1, AhR; experiment: In vitro assay 3: XRE-luciferase reporter assay, agonism in human cell line (HepG2); conditions: HepG2 XRE-Luc, tryptophan free medium, test compound alone, 6 hours
Description: In Vitro XRE-Luciferase Reporter Assay (In Vitro Assay 1, 2, 3)
AhR activation leads the induction of target gene expression such as CYP1A1 and CYP1B1 by AhR binding to AhR-responsive DNA elements also known as xenobiotics responsive elements (XRE). The assay for measuring AhR activity herein is the luciferase assay using cell lines transfected with luciferase reporter plasmid containing XREs at the upstream of the reporter gene. Cells transfected with XRE-luciferase reporter (XRE-Luc) plasmid drive luciferase activity reflecting activation and inhibition of AhR in the cells. In addition to transfection with XRE-reporter vector, cells were co-transfected with Nano-luciferase reporter gene construct (Nano-Luc) containing constitutively active promoter as internal control. Kynurenine (an endogenous AhR agonist) was used to stimulate cells to test antagonistic properties of the compounds. The half-maximal inhibitory concentration (IC50) or half-maximal effective concentration (EC50) value was calculated using nonlinear regression (four parameters) with Prism8.0 software (GraphPad).
In Vitro Assay 3: Agonism in Human Cell Line
HepG2 (human hepatoma cell line) cells co-transfected with XRE-Luc and Nano-Luc plasmids were plated in tryptophan free medium containing 1% of dialyzed fetal bovine serum and incubated overnight at 37° C. in a CO2 incubator. After 24 hours, cells were treated for 6 hours with test compounds or not. Firefly luciferase and Nano-luciferase activity was measured using Nano-glo Luciferase kit (Promega) and relative luciferase activity (Firefly/Nano-Luc) was used to calculate EC50 values. As a positive control, cells were incubated with TCDD. (EC50 Values are grouped as A, B, C and D, whereby A: EC50<0.1 μM; B: 0.1<EC50<1.0 μM; C: 1.0<EC50<10 μM; D: EC50>10 μM)

[4] = read-out: CYP1A1 (% Inhibition)
[5] = read-out: CYP1B1 (% Inhibition)
[6] = cells treated with kynurenine 200 μM (no *)
[7] = read-out: Assay 3: AhR-Luc Human Agonism (EC50)
[8] = read-out: Assay 3: AhR-Luc Human Agonism (EC50, nM), class in brackets
[9] = cells treated with kynurenine 50 μM (*)

SMILES | inhibition at 0.123 µM [1, 4] [%] | inhibition at 0.123 µM [1, 5] [%] | IC50 [2, 6] [nM] | EC50 [3, 7] [nM] | EC50 [3, 8] [nM] | IC50 [2, 9] [nM]
O=c1c2cc(-c3ccc(C(F)(F)F)cc3)nc(-c3cccnc3)c2ncn1[C@@H]1CCCC[C@@H]1O [Example 16, 3-((1R,2S)-2-hydroxycyclohexyl)-8-(pyridin-3-yl)-6-(4-(trifluoromethyl)phenyl)pyrido[3,4-d]pyrimidin-4(3H)-one] | 99.6 | 100 | < 10 |  |  | 
CC(C)(O)Cn1cnc2c(-c3cccnc3)nc(-c3ccc(Cl)cc3)cc2c1=O [Example 38, 6-(4-chlorophenyl)-3-(2-hydroxy-2-methylpropyl)-8-(pyridin-3-yl)pyrido[3,4-d]pyrimidin-4(3H)-one] | 100 |  | < 10 | 1670 |  | 
Cn1cc(-c2nc(-c3ccc(Cl)cc3)cc3c(=O)n([C@H]4CC[C@H](O)CC4)cnc23)cn1 [Example 10, 6-(4-chlorophenyl)-3-((1r,4r)-4-hydroxycyclohexyl)-8-(1-methyl-1H-pyrazol-4-yl)pyrido[3,4-d]pyrimidin-4(3H)-one] |  |  |  | > 30000 | > 10000 | < 10
CC(CO)N1CNc2c(cc(-c3ccc(C(F)(F)F)cc3)nc2-c2cnn(C)c2)C1=O (centres unmarked) [Example 59, 3-(1-hydroxypropan-2-yl)-8-(1-methyl-1H-pyrazol-4-yl)-6-(4-(trifluoromethyl)phenyl)-2,3-dihydropyrido[3,4-d]pyrimidin-4(1H)-one] |  |  |  | > 30000 | > 10000 | < 10
O=c1c2cc(-c3ccc(Cl)nc3)nc(-c3cccnc3)c2ncn1[C@@H]1CC[C@H](O)C1 [Example 71, 6-(6-chloropyridin-3-yl)-3-((1R,3S)-3-hydroxycyclopentyl)-8-(pyridin-3-yl)pyrido[3,4-d]pyrimidin-4(3H)-one] |  |  | 10 to 100 | > 30000 | > 10000 | 
Cn1cc(-c2nc(-c3ccc(C(F)(F)F)cc3)cc3c(=O)n(C4CCCC(O)C4)cnc23)cn1 (centres unmarked) [Example 1, 3-(3-hydroxycyclohexyl)-8-(1-methyl-1H-pyrazol-4-yl)-6-(4-(trifluoromethyl)phenyl)pyrido[3,4-d]pyrimidin-4(3H)-one] |  |  |  | > 30000 | > 10000 | < 10
CC(CO)n1cnc2c(-c3cnn(C)c3)nc(-c3ccc(Cl)cc3)cc2c1=O (centres unmarked) [Example 48, 6-(4-chlorophenyl)-3-(1-hydroxypropan-2-yl)-8-(1-methyl-1H-pyrazol-4-yl)pyrido[3,4-d]pyrimidin-4(3H)-one] |  |  |  | > 30000 | > 10000 | < 10
CS(=O)(=O)N1CCC(n2cnc3c(-c4cccnc4)nc(-c4ccc(Cl)cc4)cc3c2=O)CC1 [Example 94, 6-(4-chlorophenyl)-3-(1-(methylsulfonyl)piperidin-4-yl)-8-(pyridin-3-yl)pyrido[3,4-d]pyrimidin-4(3H)-one] |  |  | < 10 | > 30000 | > 10000 | 
O=c1c2cc(-c3ccc(N4CCOCC4)cc3)nc(-c3cccnc3)c2ncn1CC(O)CO (centres unmarked) [Example 82, 3-(2,3-dihydroxypropyl)-6-(4-morpholinophenyl)-8-(pyridin-3-yl)pyrido[3,4-d]pyrimidin-4(3H)-one] |  |  | < 10 | > 30000 | > 10000 | 
CS(=O)(=O)CCn1cnc2c(-c3cccnc3)nc(-c3ccc(Cl)cc3)cc2c1=O [Example 77, 6-(4-chlorophenyl)-3-(2-(methylsulfonyl)ethyl)-8-(pyridin-3-yl)pyrido[3,4-d]pyrimidin-4(3H)-one] |  |  | < 10 | > 30000 | > 10000 | 
Cn1cc(-c2nc(-c3ccc(C(F)(F)F)cc3)cc3c(=O)n([C@H]4CCCC[C@H]4O)cnc23)cn1 [Example 17, 3-((1S,2R)-2-hydroxycyclohexyl)-8-(1-methyl-1H-pyrazol-4-yl)-6-(4-(trifluoromethyl)phenyl)pyrido[3,4-d]pyrimidin-4(3H)-one] | 90.7 | 99.1 | > 1000 |  |  | 
CC(CO)n1cnc2c(-c3cccnc3)nc(-c3ccc(OC(F)(F)F)cc3)cc2c1=O (centres unmarked) [Example 49, 3-(1-hydroxypropan-2-yl)-8-(pyridin-3-yl)-6-(4-(trifluoromethoxy)phenyl)pyrido[3,4-d]pyrimidin-4(3H)-one] |  |  |  | 9660 |  | < 10
CC(CO)n1cnc2c(-c3cccnc3)nc(-c3ccc(C(F)(F)F)nc3)cc2c1=O (centres unmarked) [Example 50, 3-(1-hydroxypropan-2-yl)-8-(pyridin-3-yl)-6-(6-(trifluoromethyl)pyridin-3-yl)pyrido[3,4-d]pyrimidin-4(3H)-one] |  |  |  | 2050 |  | < 10
CCC(CO)n1cnc2c(-c3cccnc3)nc(-c3ccc(Cl)cc3)cc2c1=O (centres unmarked) [Example 51, 6-(4-chlorophenyl)-3-(1-hydroxybutan-2-yl)-8-(pyridin-3-yl)pyrido[3,4-d]pyrimidin-4(3H)-one] | 99.2 |  |  | 701 |  | < 10
CC(CO)n1cnc2c(-c3cnn(C)c3)nc(-c3cnn(C)c3)cc2c1=O (centres unmarked) [Example 3, 3-(1-hydroxypropan-2-yl)-6,8-bis(1-methyl-1H-pyrazol-4-yl)pyrido[3,4-d]pyrimidin-4(3H)-one] |  |  |  | > 30000 | > 10000 | > 1000
CC(CO)n1cnc2c(-c3cnn(C)c3)nc(-c3ccc(C(F)(F)F)cc3)cc2c1=O (centres unmarked) [Example 45, 3-(1-hydroxypropan-2-yl)-8-(1-methyl-1H-pyrazol-4-yl)-6-(4-(trifluoromethyl)phenyl)pyrido[3,4-d]pyrimidin-4(3H)-one] | 99.6 | 100 |  | 0.0428 |  | < 10
